Test results published in patent US20070093673A1, “Boron-containing compounds, uses and preparation thereof” (priority 2005, published 2007).

Key:
Pain and/or Inflammation = experiment: Tests on various subjects: cream applied to the inflamed skin area for pain and/or inflammation; assay type: in vivo, human; set-up: key to Pain Condition After Last Application: CD: complete disappearance of pain; RP: residual pain (i.e.: equivalent to mild pain intensity); key to Pain Intensity After Application: No pain: 0; Mild pain: +; Moderate pain: ++; Severe pain: +++ (i.e.: interference with sleep and/or day's activities)
Method: Compound 1, and more particularly Composition 1, was tested on several subjects so as to verify its activity as anti-inflammatory agent and/or analgesic. As it can be seen from Table 1, test subjects having various inflammations or pain have been treated with Composition 1. In each case, a small amount of Composition 1, in the form of a cream, was applied to inflammated skin area by means of a short gentle rub.
All data were provided under testimony of all volunteers.
M: male • a) Pain intensity rating: • No pain: 0 • Mild pain: + • Moderate pain: ++ • Severe pain: +++ (i.e.: interference with sleep and/or day's activities). • b) Pain condition after the last application of Compound 1. • CD: complete disappearance of pain. • RP: residual pain (i.e.: equivalent to mild pain intensity).

[1] = solubility in water of Compound 1; assay type: physicochemical
Text: The mass spectroscopy analysis (electrospray/scanning) using a Micromass quattra ll triple quadrupole mass spectrometer with a GC and HPLC interface, confirmed the previously illustrated formula for Compound 1. Analysis of Compound 1 was done by mass spectroscopy, positive mode, preparation of samples in 2% acetonitrile-98% methanol. […] The product observed was the following: B3C3H11O9 (223.5 g per mole). […] The purity of the obtained product was>98 % (confirmed by 500 MHz ^1H NMR analysis) and the solubility in water was at maximum 7% w/w, yielding a clear colorless solution.
An analysis of Compound 1, prepared by using metaboric acid and glycerol, was conducted under the same condition as for Compound 1 with boric acid and glycerol. […] The product observed was the following: B3C3H11O9 (223.5 g per mole). […] When compared to Compound 1 prepared from boric acid and glycerol, the purity and solubility of the obtained product were similar i.e. a purity of ≈98% with solubility in water at maximum of 7% w/w, yielding a colorless solution.

[2] = all four subjects with chronic diseases, after application

SMILES: CC(=O)Oc1ccccc1C(=O)O [Aspirin®, acetylsalicylic acid, reference compound]
- gastric adverse effect that prompted discontinuation (Pain and/or Inflammation; medications taken in the past by the volunteers, testimony): severe gastric burning sensation

SMILES: OB(O)OCC(COB(O)O)OB(O)O [Compound 1]
- solubility in water ([1]; Compound 1 prepared from boric acid and glycerol, clear colorless solution): ≤ 7 % w/w
- solubility in water ([1]; Compound 1 prepared from metaboric acid and glycerol, colorless solution): ≤ 7 % w/w
- subjects with total disappearance of pain (Pain and/or Inflammation; 30 minutes after application of the cream containing Compound 1): Four subjects out of six
- complete loss of stiffness (Pain and/or Inflammation; [2]): within four four hours
- reduced sensation of stiffness (Pain and/or Inflammation; [2]): within two hours
- time to complete relief of the pain after the application (Pain and/or Inflammation; four subjects with chronic lower back pain, fibromyalgia or arthritis): approximately 30 minutes
- pain after last application, all subjects (Pain and/or Inflammation; including three out of six who required a maximum of three applications): complete disappearance of pain for all subjects
- time to relapse of pain (Pain and/or Inflammation; one out of four subjects with chronic disease, who required three applications): approximately 12 hours
- pain intensity, all volunteers (Pain and/or Inflammation; six volunteers, topical cream): reduced pain intensity for all volunteers
- loss of swelling at joints and of tenderness sensation (Pain and/or Inflammation; subjects with fibromyalgia and arthritis): approximately the same time-frames as reported earlier for stiffness
- time to complete disappearance of pain (Pain and/or Inflammation; two subjects with an injury to a leg): within three days
- effect compared with medications taken in the past for the same chronic afflictions (Pain and/or Inflammation; versus acetaminophen/Tylenol, acetaminophen-codeine/Empracet or acetylsalicylic acid/Aspirin, testimony of volunteers): higher than medications taken in the past
- Pain Condition After Last Application (Pain and/or Inflammation; volunteer D-123-S, injury, leg, 3 applications): CD
- Pain Intensity After Application (Pain and/or Inflammation; volunteer D-123-S, injury, leg, before application ++, 3 applications, topical cream): +
- Time to Pain Relief (Pain and/or Inflammation; volunteer D-123-S, injury, leg, before application ++, topical cream): 0.5 h
- Pain Condition After Last Application (Pain and/or Inflammation; volunteer D-321-J, fibromyalgia, hands, 1 application): CD*
- Pain Intensity After Application (Pain and/or Inflammation; volunteer D-321-J, fibromyalgia, hands, before application +++, 1 application, topical cream): 0
- Time to Pain Relief (Pain and/or Inflammation; volunteer D-321-J, fibromyalgia, hands, before application +++, topical cream): 0.5 h
- Pain Condition After Last Application (Pain and/or Inflammation; volunteer D-457-D, fibromyalgia, hands & feet, 1 application): CD*
- Pain Intensity After Application (Pain and/or Inflammation; volunteer D-457-D, fibromyalgia, hands & feet, before application ++, 1 application, topical cream): 0
- Time to Pain Relief (Pain and/or Inflammation; volunteer D-457-D, fibromyalgia, hands & feet, before application ++, topical cream): 0.5 h
- Pain Condition After Last Application (Pain and/or Inflammation; volunteer D-633-J, lower back pain, musculoskeletal, 1 application): CD*
- Time to Pain Relief (Pain and/or Inflammation; volunteer D-633-J, lower back pain, musculoskeletal, before application ++, topical cream): 0.5 h
- Pain Intensity After Application (Pain and/or Inflammation; volunteer D-633-J, lower back pain, musculoskeletal, lower back, central, before application ++, 1 application, topical cream): 0
- Pain Condition After Last Application (Pain and/or Inflammation; volunteer D-701, arthritis, wrists, 3 applications): CD
- Time to Pain Relief (Pain and/or Inflammation; volunteer D-701, arthritis, wrists, before application ++, topical cream): 0.5 h
- Pain Intensity After Application (Pain and/or Inflammation; volunteer D-942-L, injury, leg, before application +++, 3 applications, topical cream): ++
- Pain Condition After Last Application (Pain and/or Inflammation; volunteer D-942-L, injury, leg, 3 applications): CD
- Time to Pain Relief (Pain and/or Inflammation; volunteer D-942-L, injury, leg, before application +++, topical cream): 8.0 h
